Laboratory results reported in patent publication US4061626A, “Somatostatin analogs and intermediates thereto” (Eli Lilly and Company, priority 1976, dated 1977).
Where a SMILES comes first, the peptide text is derived from it.

What was measured:
[1] = test system: gastric HCl secretion; test: in vivo inhibition of gastric acid secretion in dogs with chronic gastric fistula and Heidenhain pouch; settings: infused at 3 μg/kg-hr. for one hour, secretion induced by C-terminal tetrapeptide of gastrin 0.5 μg/kg-hr
Method: D-Lys^4 -somatostatin and D-Ala^2,D-Lys^4 -somatostatin also were tested in dogs for their in vivo inhibition of gastric acid secretion. In dogs with chronic gastric fistula and Heidenhain pouch, gastric HCl secretion was induced by infusion of the C-terminal tetrapeptide of gastrin at 0.5 μg/kg-hr. One dog served as control, receiving only the tetrapeptide. Another dog received the tetrapeptide and somatostatin while the test compound was administered to other dogs in place of somatostatin. After one hour of steady state secretion of HCl, somatostatin or the test compound was infused at 3 μg/kg-hr. for one hour. Collection of gastric acid samples was continued for an additional 1.5 hours at 15 minute intervals.

[2] = test system: growth hormone secretion; test: release of growth hormone in sodium pentobarbital-stimulated rats; assay type: in vivo, Spraque-Dawley rats
Method: D-Lys^4 -somatostatin and D-Ala^2,D-Lys^4 -somatostatin also were tested for their activity with respect to the release of growth hormone. The procedure which was employed is carried out using mature male Spraque-Dawley rats (Laboratory Supply Company, Indianapolis, Indiana). The test is a modification of the method of P. Brazeau, W. Vale, and R. Guilleman, Endocrinology, 94 184 (1974). In this assay, two sets, one comprising five groups of eight rats each and the other comprising three groups of eight rats each were employed. First, sodium pentobarbital was administered to all of the rats of a particular set to stimulate growth hormone secretion. In the set comprising five groups of eight rats, one group is the control group and received only saline. Two of the groups received somatostatin, one at 2 μg./rat, subcutaneously, and the other at 50 μg./rat, subcutaneously. The other two groups received D-Ala^2,D-Lys^4 -somatostatin, one at 2 μg./rat, subcutaneously and the other at 50 μg./rat, subcutaneously. The degree of inhibition of serum growth hormone concentration then was determined with respect to the control group, and the relative activities of D-Ala^2,D-Lys^4 -somatostatin and somatostatin itself were compared.
The other set of three groups of eight rats each was treated in the same manner as above, with the exception the D-Lys^4 -somatostatin was used in place of D-Ala^2,D-Lys^4 -somatostatin, and the test was carried out only at a 50 μg./rat dose level. The D-Lys^4 -somatostatin stimulated growth hormone secretion by about 8 percent over control, while somatostatin in this set inhibited growth hormone secretion by 70 percent over control.

[3] = test system: glucagon secretion; test: in vivo inhibition of glucagon secretion upon stimulation with insulin; set-up: species or system mongrel dogs; settings: dogs; insulin 0.3 units/kg. i.v.; infusion 0.07-0.13 μg/kg/min. (D-Lys^4 at 0.150, D-Ala^2,D-Lys^4 at 0.114 μg/kg/min.)
Method: D-Lys^4 -somatostatin and D-Ala^2,D-Lys^4 -somatostatin also were evaluated for in vivo activity in inhibiting glucagon secretion upon stimulation with insulin. Normal mongrel dogs of either sex were fasted overnight. After control blood samples had been obtained, an intravenous infusion of saline, somatostatin, D-Lys^4 -somatostatin, or D-Ala^2,D-Lys^4 -somatostatin was commenced. After 15 minutes, insulin, 0.3 units/kg., was injected intravenously. The infusion of saline, somatostatin, or the test compound was continued for two hours, and blood samples were obtained at various intervals throughout the test. The total dose of the somatostatin or test compound ranged from 120-260 μg./dog (0.07-0.13 μg/kg/min.). Administration of insulin produced a reduction in the blood glucose concentration and an increase in serum glucagon concentration.

[4] = test system: pancreatic secretion; test: inhibition of secretin-induced pancreatic secretion in dogs with pancreatic and total gastric fistula; assay type: in vivo; settings: 3 μg/kg-hr for one hour, secretin 0.5 unit/kg-hr.
Method: D-Ala^2,D-Lys^4 -somatostatin was also shown to inhibit pancreatic secretion. In three dogs having both pancreatic and total gastric fistula, secretion from the pancreas was induced by infusion of secretin at 0.5 unit/kg-hr. and gastric HCl by infusion of tetragastrin at 0.5 μg/kg-hr. After a steady response was established, administration of the test compound was begun. One of the dogs was retained as control, and, of the remaining two dogs, one received somatostatin and the other D-Ala^2,D-Lys^4 -somatostatin, each for one hour at 3 μg/kg-hr.Peak inhibitory effects expressed as percent changes over control are as follows: […]

[5] = test system: glucagon and insulin secretion; test: in vivo inhibition of glucagon and insulin secretion upon stimulation with L-alanine; set-up: species or system mongrel dogs; settings: dogs
Method: D-Ala^2,D-Lys^4 -somatostatin was tested for its in vivo activity in inhibiting glucagon and insulin secretion upon stimulation with L-alanine. Normal mongrel dogs of either sex were fasted overnight. Control blood samples were obtained, and then an intravenous infusion of saline, somatostatin, or D-Ala^2,D-Lys^4 -somatostatin was started. After 30 minutes, L-alanine additionally was administered intravenously for a period of 15 minutes. The infusion of saline, somatostatin, or D-Ala^2,D-Lys^4 -somatostatin was continued for 15 minutes after completion of the alanine infusion. The total dose of somatostatin or D-Ala^2,D-Lys^4 -somatostatin which was infused is 200-500 μg./dog (0.20-0.30 μg/kg./minute), and the total dose of L-alanine infused was 1 mmol/kg.

[6] = intravenous infusion 0.20-0.30 μg/kg./minute (D-Ala^2,D-Lys^4 -somatostatin at 0.253 μg/kg/min.), L-alanine 1 mmol/kg

C[C@H](N)C(=O)NCC(=O)N[C@H]1CSSC[C@@H](C(=O)O)NC(=O)[C@H](CO)NC(=O)[C@H]([C@@H](C)O)NC(=O)[C@H](Cc2ccccc2)NC(=O)[C@H]([C@@H](C)O)NC(=O)[C@H](CCCCN)NC(=O)[C@H](Cc2c[nH]c3ccccc23)NC(=O)[C@H](Cc2ccccc2)NC(=O)[C@H](Cc2ccccc2)NC(=O)[C@H](CC(N)=O)NC(=O)[C@@H](CCCCN)NC1=O [D-Lys^4 -somatostatin]
inhibition of gastric acid secretion relative to the control [1]: 87.3% | stimulation of growth hormone secretion over control ([2]; 50 μg./rat, set of three groups): about 8% | effect on the increase in serum glucagon concentration produced by insulin administration [3]: neither inhibited

C[C@H](N)C(=O)N[C@H](C)C(=O)N[C@H]1CSSC[C@@H](C(=O)O)NC(=O)[C@H](CO)NC(=O)[C@H]([C@@H](C)O)NC(=O)[C@H](Cc2ccccc2)NC(=O)[C@H]([C@@H](C)O)NC(=O)[C@H](CCCCN)NC(=O)[C@H](Cc2c[nH]c3ccccc23)NC(=O)[C@H](Cc2ccccc2)NC(=O)[C@H](Cc2ccccc2)NC(=O)[C@H](CC(N)=O)NC(=O)[C@@H](CCCCN)NC1=O [D-Ala^2,D-Lys^4 -somatostatin, D-Ala^2, D-Lys^4 -somatostatin] (HELM PEPTIDE1{A.[dA].C.[dK].N.F.F.W.K.T.F.T.S.C}$PEPTIDE1,PEPTIDE1,3:R3-14:R3$$$V2.0)
inhibition of gastric acid secretion relative to the control [1]: 50.9% | Pancreatic Secretion HCO3^-, peak inhibitory effect as percent change over control [4]: -68% | Pancreatic Secretion Protein, peak inhibitory effect as percent change over control [4]: -55.4% | Pancreatic Secretion Volume, peak inhibitory effect as percent change over control [4]: -61% | stimulation of growth hormone secretion over control ([2]; 2 μg./rat, subcutaneously, set of five groups): 114% | stimulation of growth hormone secretion over control ([2]; 50 μg./rat, subcutaneously, set of five groups): ~200% | effect on basal serum insulin concentration ([5]; intravenous infusion 0.20-0.30 μg/kg./minute (D-Ala^2,D-Lys^4 -somatostatin at 0.253 μg/kg/min.)): slight decrease | effect on the rise in serum glucagon concentration during infusion of L-alanine [5, 6]: partial inhibition | effect on the rise in serum insulin concentration during infusion of L-alanine [5, 6]: partial inhibition | effect on basal secretion of glucagon ([5]; intravenous infusion at 0.253 μg/kg/min.): slight decrease | effect on the increase in serum glucagon concentration produced by insulin administration [3]: neither inhibited
